Experimental findings from patent US8008298B2, “Pyrrolopyrazine kinase inhibitors” (Roche Palo Alto, priority 2008, dated 2011) are described below.

Where a name gives a salt, the structure may show the parent alone.

In turn, `COc1cc(-c2cnc3[nH]cc(C(=O)NCC(C)OC)c3n2)cc(OC)c1OC` (centres unmarked) (as salt: hydrochloride) [Example 24, 2-(3,4,5-Trimethoxy-phenyl)-5H-pyrrolo[2,3-b]pyrazine-7-carboxylic acid (2-methoxy-propyl)-amide] had a melting point of 199 to 200 °C.
The same measure for `COc1cc(-c2cnc3[nH]cc(C(=O)NCC(C)(C)CO)c3n2)cc(OC)c1OC` [Example 15, 2-(3,4,5-Trimethoxy-phenyl)-5H-pyrrolo[2,3-b]pyrazine-7-carboxylic acid (3-hydroxy-2,2-dimethyl-propyl)-amide]: 224 to 225 °C; for `COc1ccc(-c2cnc3[nH]cc(C(N)=O)c3n2)cc1OC` [Example 18, 2-(3,4-Dimethoxy-phenyl)-5H-pyrrolo[2,3-b]pyrazine-7-carboxylic acid amide]: 290 to 292.4 °C.
The same measure for `COc1cc(-c2cnc3[nH]cc(C(=O)NCC(C)O)c3n2)cc(OC)c1OC` (centres unmarked) [Example 22, 2-(3,4,5-Trimethoxy-phenyl)-5H-pyrrolo[2,3-b]pyrazine-7-carboxylic acid (2-hydroxy-propyl)-amide]: 201.9 to 202.6 °C; for `COc1cc(-c2cnc3[nH]cc(C(=O)NC4CCCOC4)c3n2)cc(OC)c1OC` (centres unmarked) [Example 23, 2-(3,4,5-Trimethoxy-phenyl)-5H-pyrrolo[2,3-b]pyrazine-7-carboxylic acid (tetrahydro-pyran-3-yl)-amide]: 191 to 192 °C; for `COc1ccc(-c2cnc3[nH]cc(C(=O)NC4CCN(C)C4)c3n2)cc1OC` (centres unmarked) [Example 25, 2-(3,4-Dimethoxy-phenyl)-5H-pyrrolo[2,3-b]pyrazine-7-carboxylic acid (1-methyl-pyrrolidin-3-yl)-amide]: 193 to 194 °C.
`COc1ccc(-c2cnc3[nH]cc(C(=O)NC4CCN(C(C)=O)C4)c3n2)cc1OC` (centres unmarked) [Example 26, 2-(3,4-Dimethoxy-phenyl)-5H-pyrrolo[2,3-b]pyrazine-7-carboxylic acid (1-acetyl-pyrrolidin-3-yl)-amide]: the melting point was 211 to 212 °C.
The same measure for `CC(C)(C)C(=O)c1c[nH]c2ncc(-c3cccc(N4CCCC4)c3)nc12` [Example 33, 2,2-dimethyl-1-[2-(3-pyrrolidin-1-yl-phenyl)-5H-pyrrolo[2,3-b]pyrazin-7-yl]-propan-1-one]: 259 to 260 °C; for `CC1(C(=O)c2c[nH]c3ncc(-c4cccc(N5CCCC5)c4)nc23)CCCCC1` [Example 36, (1-Methyl-cyclohexyl)-[2-(3-pyrrolidin-1-yl-phenyl)-5H-pyrrolo[2,3-b]pyrazin-7-yl]-methanone]: 243 to 245.4 °C.
Consider `COc1cc(-c2cnc3[nH]cc(C(=O)C(C)(CO)CO)c3n2)cc(OC)c1OC` [Example 58, 3-Hydroxy-2-hydroxymethyl-2-methyl-1-[2-(3,4,5-trimethoxy-phenyl)-5H-pyrrolo[2,3-b]pyrazin-7-yl]-propan-1-one], for which the melting point lay in the range of 222 to 223 °C.
Next, `COc1cc(-c2cnc3[nH]cc(C(=O)CC(C)C)c3n2)cc(OC)c1OC` [Example 63, 3-methyl-1-[2-(3,4,5-trimethoxy-phenyl)-5H-pyrrolo[2,3-b]pyrazin-7-yl]-butan-1-one]: 210 to 211.4 °C.
The same measure for `COc1cc(-c2cnc3[nH]cc(C(=O)Cc4ccccc4)c3n2)cc(OC)c1OC` [Example 64, 2-phenyl-1-[2-(3,4,5-trimethoxy-phenyl]-5H-pyrrolo[2,3-b]pyrazin-7-yl]-ethanone]: 226 to 227 °C; for `COc1cc(-c2cnc3[nH]cc(C(=O)C(C)(C)C)c3n2)cc(OC)c1OC` [Example 67, 2,2-Dimethyl-1-[2-(3,4,5-trimethoxy-phenyl)-5H-pyrrolo[2,3-b]pyrazin-7-yl]-propan-1-one]: 240 to 241 °C.
Next, `COc1cc(-c2cnc3[nH]cc(C(=O)C(C)C)c3n2)cc(OC)c1OC` [Example 68, 2-Methyl-1-[2-(3,4,5-trimethoxy-phenyl)-5H-pyrrolo[2,3-b]pyrazin-7-yl]-propan-1-one]: 189 to 190 °C.
The compound `CCOC(C)(OCC)C(=O)c1c[nH]c2ncc(-c3cc(OC)c(OC)c(OC)c3)nc12` [Example 72, 2,2-Diethoxy-1-[2-(3,4,5-trimethoxy-phenyl)-5H-pyrrolo[2,3-b]pyrazin-7-yl]-propan-1-one] registered a melting point of 198.2 to 201 °C.
Take `COc1cc(-c2cnc3[nH]cc(C(=O)C(=O)N(C)C)c3n2)cc(OC)c1OC` [Example 74, N,N-Dimethyl-2-oxo-2-[2-(3,4,5-trimethoxy-phenyl)-5H-pyrrolo[2,3-b]pyrazin-7-yl]-acetamide]: the melting point was in the range of 227 to 228 °C.
The same measure for `CC(C)(C)C(=O)c1c[nH]c2ncc(-c3cccc(N4CCN(C(=O)CC#N)CC4)c3)nc12` [Example 90, 3-(4-{3-[7-(2,2-Dimethyl-propionyl)-5H-pyrrolo[2,3-b]pyrazin-2-yl]-phenyl}-piperazin-1-yl)-3-oxo-propionitrile]: 240 to 242 °C; for `CC(C)(C)C(=O)c1c[nH]c2ncc(-c3cc(N4CCCC4)cc(N4CCCC4)c3)nc12` [Example 97, 1-[2-(3,5-Di-pyrrolidin-1-yl-phenyl)-5H-pyrrolo[2,3-b]pyrazin-7-yl]-2,2-dimethyl-propan-1-one]: 291 to 303 °C; for `COc1ccc(-c2cnc3[nH]cc(C(=O)C(C)(C)C)c3n2)cc1` [Example 98, 1-[2-(4-Methoxy-phenyl)-5H-pyrrolo[2,3-b]pyrazin-7-yl]-2,2-dimethyl-propan-1-one]: 207 to 208 °C.
Next, `COc1ccc(-c2cnc3[nH]cc(C(=O)C(C)(C)C)c3n2)cc1N1CCCC1` [Example 101, 1-[2-(4-Methoxy-3-pyrrolidin-1-yl-phenyl)-5H-pyrrolo[2,3-b]pyrazin-7-yl]-2,2-dimethyl-propan-1-one]: 211 to 213 °C; `C[S+]([O-])c1ccc(-c2cnc3[nH]cc(C(=O)C(C)(C)C)c3n2)cc1N1CCCC1` (centres unmarked) [Example 107, 1-[2-(4-Methanesulfinyl-3-pyrrolidin-1-yl-phenyl)-5H-pyrrolo[2,3-b]pyrazin-7-yl]-2,2-dimethyl-propan-1-one]: 150 to 152 °C; `CC(C)(C)C(=O)c1c[nH]c2ncc(-c3cccc(N4CCC(S(C)(=O)=O)C4)c3)nc12` (centres unmarked) [Example 109, 1-{2-[3-(3-Methanesulfonyl-pyrrolidin-1-yl)-phenyl]-5H-pyrrolo[2,3-b]pyrazin-7-yl}-2,2-dimethyl-propan-1-one]: 223 to 225 °C.
The same measure for `COC1CN(c2cccc(-c3cnc4[nH]cc(C(=O)C(C)(C)C)c4n3)c2)C1` [Example 111, 1-{2-[3-(3-Methoxy-azetidin-1-yl)-phenyl]-5H-pyrrolo[2,3-b]pyrazin-7-yl}-2,2-dimethyl-propan-1-one]: 196 to 198 °C; for `COc1cc(-c2cnc3[nH]cc(C(=O)CCC(C)OC)c3n2)cc(OC)c1OC` (centres unmarked) [Example 129, 4-Methoxy-1-[2-(3,4,5-trimethoxy-phenyl)-5H-pyrrolo[2,3-b]pyrazin-7-yl]-pentan-1-one]: 150 to 151 °C.
The compound `COc1cc(-c2cnc3[nH]cc(C(=O)C(C)(C)OC)c3n2)cc(OC)c1OC` [Example 131, 2-Methoxy-2-methyl-1-[2-(3,4,5-trimethoxy-phenyl)-5H-pyrrolo[2,3-b]pyrazin-7-yl]-propan-1-one] showed a melting point of 237.8 to 239.1 °C.
In turn, `COCC(=O)c1c[nH]c2ncc(-c3cc(OC)c(OC)c(OC)c3)nc12` [Example 132, 2-Methoxy-1-[2-(3,4,5-trimethoxy-phenyl)-5H-pyrrolo[2,3-b]pyrazin-7-yl]-ethanone] returned a melting point of 229 to 230 °C.
Next, `CCOc1cccc(-c2cnc3[nH]cc(C(=O)C(C)(C)C)c3n2)c1` [Example 136, 1-[2-(3-Ethoxy-phenyl)-5H-pyrrolo[2,3-b]pyrazin-7-yl]-2,2-dimethyl-propan-1-one]: 195 to 196 °C; `CC(C)COc1cccc(-c2cnc3[nH]cc(C(=O)C(C)(C)C)c3n2)c1` [Example 137, 1-[2-(3-Isobutoxy-phenyl)-5H-pyrrolo[2,3-b]pyrazin-7-yl]-2,2-dimethyl-propan-1-one]: 177 to 178 °C; `CC(C)Oc1cccc(-c2cnc3[nH]cc(C(=O)C(C)(C)C)c3n2)c1` [Example 138, 1-[2-(3-Isopropoxy-phenyl)-5H-pyrrolo[2,3-b]pyrazin-7-yl]-2,2-dimethyl-propan-1-one]: 149 to 150 °C.
The same measure for `CCCOc1cccc(-c2cnc3[nH]cc(C(=O)C(C)(C)C)c3n2)c1` [Example 139, 2,2-Dimethyl-1-[2-(3-propoxy-phenyl)-5H-pyrrolo[2,3-b]pyrazin-7-yl]-propan-1-one]: 179 to 180 °C; for `CC(C)(C)C(=O)c1c[nH]c2ncc(-c3ccc(S(N)(=O)=O)cc3)nc12` [Example 140, 4-[7-(2,2-Dimethyl-propionyl)-5H-pyrrolo[2,3-b]pyrazin-2-yl]-benzenesulfonamide]: 277 to 278 °C.
The same measure for `CNS(=O)(=O)c1cccc(-c2cnc3[nH]cc(C(=O)C(C)(C)C)c3n2)c1` [Example 141, 3-[7-(2,2-Dimethyl-propionyl)-5H-pyrrolo[2,3-b]pyrazin-2-yl]-N-methyl-benzenesulfonamide]: 245 to 247 °C.
`CNS(=O)(=O)c1ccc(-c2cnc3[nH]cc(C(=O)C(C)(C)C)c3n2)cc1` [Example 142, 4-[7-(2,2-Dimethyl-propionyl)-5H-pyrrolo[2,3-b]pyrazin-2-yl]-N-methyl-benzenesulfonamide] had a melting point of 278 to 280 °C.
Next, `CC(C)(C)C(=O)c1c[nH]c2ncc(-c3cccc(CCCO)c3)nc12` [Example 143, 1-{2-[3-(3-Hydroxy-propyl)-phenyl]-5H-pyrrolo[2,3-b]pyrazin-7-yl}-2,2-dimethyl-propan-1-one]: 170 to 171 °C.
The same measure for `CC(C)(C)C(=O)c1c[nH]c2ncc(-c3cccc(S(N)(=O)=O)c3)nc12` [Example 144, 3-[7-(2,2-Dimethyl-propionyl)-5H-pyrrolo[2,3-b]pyrazin-2-yl]-benzenesulfonamide]: 275 to 277 °C.
